System: lung gene expression
Assay: RNA sequencing of lung tissue (BLM/EL244 vs BLM)
Format: in vivo, mouse
Procedure: RNA quality was assessed using an Agilent TapeStation 4150 with the High Sensitivity […] ScreenTape (Agilent), according to the manufacturer’s protocols. For library preparation, the QuantSeq 3’mRNA-Seq Library Prep Kit (Lexogen) was used according to manufacturer’s instructions. Briefly, 500 ng of RNA from each sample was used for first-strand synthesis, followed by RNA template removal, and second-strand synthesis initiated by random primers. In-line barcodes were introduced at this step, and this was followed by magnetic bead-based purification. The resulting libraries were amplified for 15 cycles and re-purified, with quantity and quality assessed on a Qubit 4 Fluorometer with the Invitrogen Qubit dsDNA HS Assay and an Agilent Tapestation 4150 with the High Sensitivity D1000 assay kit, respectively. The quantified libraries were pooled equimolarly; 50ng of total library mix was used for Adapter Conversion PCR Amplification using the Universal Library Conversion Kit (App-A), Version: V1.0 (MGI Tech Co., Ltd.), according to the manufacturer’s instructions.
The quantity and quality of the purified adapter conversion PCR (AC-PCR) product were evaluated on a Qubit 4 Fluorometer with the Invitrogen Qubit dsDNA HS Assay and on an Agilent Tapestation 4150 with the High Sensitivity D1000 assay kit, respectively. This was followed by DNA denaturation, Single-Strand Circularisation, Enzymatic Digestion, Enzymatic Digestion Product Cleanup and Quality Control steps on 1 pmol of AC-PCR product, according to the Universal Library Conversion Kit (App-A) User Manual (Version: A3).
Finally, 60 fmol of ssCirDNA were used for DNB preparation and sequencing on a DNBSEQ-G400 platform at the BSRC Alexander Fleming Genomics Facility, using a G400 App-A FCS SE100 High-throughput Sequencing Set (MGI Tech Co., Ltd.), according to the manufacturer’s instructions.
Alignment of the FASTQ files was performed against the mouse genome build mm10 using a custom Bash script.[143] Read counting on the 3′ UTRs and differential expression analysis were conducted using the metaseqR2 bioconductor package.[144] Genes corresponding to the following biotypes were excluded: polymorphic_pseudogene, processed_transcript, pseudogene, IG_V_pseudogene, misc_RNA, IG_C_gene, IG_J_gene, IG_D_gene, IG_LV_gene, TR_V_gene, TR_V_pseudogene, TEC, and processed_pseudogene. Gene counts were normalized with DESEQ[145] through metaseqR2. Genes with more than 10 counts in at least 50% of the samples were kept for further processing. For differential expression analysis, the PANDORA algorithm[146] was used to estimate a meta p-value integrating the results from the DESEQ, DESEQ2,[147] edgeR,[148] limma,[149] NBPSeq,[150] and NOISeq[151] algorithms. All additional parameters were set to default values.
Pathway enrichment analysis was performed for the Gene Ontology Biological process (BP) and Molecular Function (MF) terms through GeneCodis 4.[152] The volcano plots, scatterplots, Venn diagrams, and dot plots were generated using the ggplot2 Bioconductor package.

Structure (SMILES): O=C1NC(=O)C(Cc2ccc(OCCC3CCN(C(=O)OCc4cc(Cl)cc(Cl)c4)CC3)cc2)S1 (stereo not drawn) [EL244, 3,5-dichlorobenzyl 4-(2-(4-((2,4-dioxothiazolidin-5-yl)methyl)phenoxy)ethyl)piperidine-1-carboxylate]
- Myh6 log2 nFC BLM/EL244 vs BLM (DEG Myh6, nFC: normalised fold change): 2.62
- Myh7 log2 nFC BLM/EL244 vs BLM (DEG Myh7, nFC: normalised fold change): 2.22
- Myl4 log2 nFC BLM/EL244 vs BLM (DEG Myl4, nFC: normalised fold change): 1.94
- Myl7 log2 nFC BLM/EL244 vs BLM (DEG Myl7, nFC: normalised fold change): 1.90
- Mylk3 log2 nFC BLM/EL244 vs BLM (DEG Mylk3, nFC: normalised fold change): 2.03
- Myom2 log2 nFC BLM/EL244 vs BLM (DEG Myom2, nFC: normalised fold change): 1.87
- log2 nFC BLM/EL244 vs BLM (DEG Ncapd2): -1.29
- Ndrg2 log2 nFC BLM/EL244 vs BLM (DEG Ndrg2, nFC: normalised fold change): 0.88
- Nek5 log2 nFC BLM/EL244 vs BLM (DEG Nek5, nFC: normalised fold change): 0.81
- Ngp log2 nFC BLM/EL244 vs BLM (DEG Ngp, nFC: normalised fold change): 2.72
- Nhlrc1 log2 nFC BLM/EL244 vs BLM (DEG Nhlrc1, nFC: normalised fold change): 1.34
- log2 nFC BLM/EL244 vs BLM (DEG Nnat): -1.34
- Nova2 log2 nFC BLM/EL244 vs BLM (DEG Nova2, nFC: normalised fold change): 0.90
- Npr3 log2 nFC BLM/EL244 vs BLM (DEG Npr3, nFC: normalised fold change): 1.53
- Nr1d1 log2 nFC BLM/EL244 vs BLM (DEG Nr1d1, nFC: normalised fold change): 0.84
- Nr4a3 log2 nFC BLM/EL244 vs BLM (DEG Nr4a3, nFC: normalised fold change): 1.63
- log2 nFC BLM/EL244 vs BLM (DEG Nrcam): -1.26
- log2 nFC BLM/EL244 vs BLM (DEG Nrep): -1.26
- Nrgn log2 nFC BLM/EL244 vs BLM (DEG Nrgn, nFC: normalised fold change): 1.04
- Nrn1 log2 nFC BLM/EL244 vs BLM (DEG Nrn1, nFC: normalised fold change): 1.84
- Nrxn2 log2 nFC BLM/EL244 vs BLM (DEG Nrxn2, nFC: normalised fold change): 0.88
- Ogn log2 nFC BLM/EL244 vs BLM (DEG Ogn, nFC: normalised fold change): 0.86
- log2 nFC BLM/EL244 vs BLM (DEG Ooep): -1.51
- Osgin1 log2 nFC BLM/EL244 vs BLM (DEG Osgin1, nFC: normalised fold change): 0.74
- Pcolce2 log2 nFC BLM/EL244 vs BLM (DEG Pcolce2, nFC: normalised fold change): 0.98
- Pcp4l1 log2 nFC BLM/EL244 vs BLM (DEG Pcp4l1, nFC: normalised fold change): 0.75
- log2 nFC BLM/EL244 vs BLM (DEG Pdgfc): -1.47
- log2 nFC BLM/EL244 vs BLM (DEG Pdlim4): -1.24
- Phactr1 log2 nFC BLM/EL244 vs BLM (DEG Phactr1, nFC: normalised fold change): 0.74
- Phf1 log2 nFC BLM/EL244 vs BLM (DEG Phf1, nFC: normalised fold change): 0.75
- Phf24 log2 nFC BLM/EL244 vs BLM (DEG Phf24, nFC: normalised fold change): 1.57
- log2 nFC BLM/EL244 vs BLM (DEG Pla1a): -1.42
- Pla2g1b log2 nFC BLM/EL244 vs BLM (DEG Pla2g1b, nFC: normalised fold change): 0.79
- log2 nFC BLM/EL244 vs BLM (DEG Plk4): -1.31
- Pln log2 nFC BLM/EL244 vs BLM (DEG Pln, nFC: normalised fold change): 2.30
- Pmvk log2 nFC BLM/EL244 vs BLM (DEG Pmvk, nFC: normalised fold change): 1.09
- log2 nFC BLM/EL244 vs BLM (DEG Pole): -1.58
- log2 nFC BLM/EL244 vs BLM (DEG Pole2): -1.50
- Ppbp log2 nFC BLM/EL244 vs BLM (DEG Ppbp, nFC: normalised fold change): 1.09
- Ppl log2 nFC BLM/EL244 vs BLM (DEG Ppl, nFC: normalised fold change): 0.87
- Ppp4r4 log2 nFC BLM/EL244 vs BLM (DEG Ppp4r4, nFC: normalised fold change): 1.26
- Pram1 log2 nFC BLM/EL244 vs BLM (DEG Pram1, nFC: normalised fold change): 1.64
- Prf1 log2 nFC BLM/EL244 vs BLM (DEG Prf1, nFC: normalised fold change): 1.34
- Prmt8 log2 nFC BLM/EL244 vs BLM (DEG Prmt8, nFC: normalised fold change): 1.27
- Prob1 log2 nFC BLM/EL244 vs BLM (DEG Prob1, nFC: normalised fold change): 0.76
- log2 nFC BLM/EL244 vs BLM (DEG Psrc1): -1.26
- Ptgfr log2 nFC BLM/EL244 vs BLM (DEG Ptgfr, nFC: normalised fold change): 0.93
- log2 nFC BLM/EL244 vs BLM (DEG Pth1r): -1.40
- Pwwp3b log2 nFC BLM/EL244 vs BLM (DEG Pwwp3b, nFC: normalised fold change): 1.22
- Rab44 log2 nFC BLM/EL244 vs BLM (DEG Rab44, nFC: normalised fold change): 1.61
- Rapgef5 log2 nFC BLM/EL244 vs BLM (DEG Rapgef5, nFC: normalised fold change): 0.88
- Rassf10 log2 nFC BLM/EL244 vs BLM (DEG Rassf10, nFC: normalised fold change): 1.19
- Rbfox3 log2 nFC BLM/EL244 vs BLM (DEG Rbfox3, nFC: normalised fold change): 1.26
- Rbm24 log2 nFC BLM/EL244 vs BLM (DEG Rbm24, nFC: normalised fold change): 1.20
- Rdh12 log2 nFC BLM/EL244 vs BLM (DEG Rdh12, nFC: normalised fold change): 1.74
- Retnlg log2 nFC BLM/EL244 vs BLM (DEG Retnlg, nFC: normalised fold change): 1.46
- Rgs9 log2 nFC BLM/EL244 vs BLM (DEG Rgs9, nFC: normalised fold change): 1.01

— article PMC13198257, “An aerosolized dual-action autotaxin inhibitor-PPARγ agonist for the treatment of pulmonary fibrosis” (Cell Reports Medicine, 2026)
